Data set [1] relates to Peritoneal macrophage. Put plainly: Antiinflammatory activity in mouse primary peritoneal macrophages assessed as inhibition of LPS-induced TNF-alpha production at 10 uM preincubated for 30 mins followed by LPS addition and measured after 24 hrs by ELISA relative to control. It counts as functional. In general terms: In an ELISA, binding on a coated surface is turned into a signal by an enzyme label.

In data set [2] the test system is Peritoneal macrophage. Put plainly: Antiinflammatory activity in mouse primary peritoneal macrophages assessed as inhibition of LPS-induced IL-6 production at 10 uM preincubated for 30 mins followed by LPS addition and measured after 24 hrs by ELISA relative to control. The class given is functional.
Data set [3] has as its system Peritoneal macrophage. Put plainly: Cytotoxicity against mouse primary peritoneal macrophages assessed as reduction in cell viability at 10 uM after 24 hrs by MTT assay. The class given is cell-based. In general terms: Tetrazolium dyes change colour on reduction, which living cells bring about.
For data set [4], the system named is Peritoneal macrophage. Nature of the data set: Antiinflammatory activity in mouse primary peritoneal macrophages assessed as inhibition of LPS-induced TNF-alpha production preincubated for 30 mins followed by LPS addition and measured after 24 hrs by ELISA. It counts as functional, cell-based.
Data set [5] deals with Peritoneal macrophage. Put plainly: Antiinflammatory activity in mouse primary peritoneal macrophages assessed as inhibition of LPS-induced IL-6 production preincubated for 30 mins followed by LPS addition and measured after 24 hrs by ELISA. It counts as functional, cell-based.

By inhibition is commonly meant the share of the control response that was lost under treatment. By IC50 is commonly meant the concentration at which inhibition is half-maximal.

Structures are written as SMILES. The source made the active and inactive calls. The calls are words filed in the database; no cut-off is given here.

Consider `COc1ccc2c(c1)cc(S(=O)(=O)c1ccc(C(F)(F)F)cc1)n2C`, for which the inhibition entry with Peritoneal macrophage [1] and in the data set on Peritoneal macrophage [2] was “Active” in each case. The Activity entry with Peritoneal macrophage [3] is “Non-Toxic”.

With `Cc1ccc(S(=O)(=O)c2cc3ccc(F)cc3n2C)cc1`, the inhibition result with Peritoneal macrophage [1] and in the data set with Peritoneal macrophage [2] was “Active” each time. For the same molecule, the Activity result in the data set with Peritoneal macrophage [3] is reported as “Non-Toxic”.

Take `Cn1c(S(=O)(=O)c2ccccc2)cc2ccccc21`: the inhibition result in the data set on Peritoneal macrophage [1] and in the data set with Peritoneal macrophage [2] was “Active” in each case. In addition, the Activity result in the data set on Peritoneal macrophage [3] is listed as “Non-Toxic”.

In the case of `Cc1ccc(S(=O)(=O)c2c(C)n(C)c3ccccc23)cc1`, the inhibition result in the data set with Peritoneal macrophage [1] and in the data set on Peritoneal macrophage [2] was “Active” throughout. In the data set with Peritoneal macrophage [3], the Activity entry is given as “Non-Toxic”.

With `COc1ccc(S(=O)(=O)c2[nH]c3cc(C)ccc3c2I)cc1`, the inhibition result with Peritoneal macrophage [1] and in the data set with Peritoneal macrophage [2] was “Active” throughout. For the same molecule, in the data set with Peritoneal macrophage [3], the Activity result is reported as “Non-Toxic”.

As to `Cc1c(S(=O)(=O)c2ccc(C(C)(C)C)cc2)n(C)c2ccccc12`, the inhibition result with Peritoneal macrophage [1] and with Peritoneal macrophage [2] was “Active” throughout. Further, the Activity entry in the data set with Peritoneal macrophage [3] was “Non-Toxic”.

With `Cn1c(S(=O)(=O)c2ccc(-c3ccccc3)cc2)cc2ccccc21`, the inhibition result with Peritoneal macrophage [1] and with Peritoneal macrophage [2] was “Active” each time. The Activity entry in the data set on Peritoneal macrophage [3] is given as “Non-Toxic”.

Regarding `COc1ccc2c(c1)cc(S(=O)(=O)c1ccc(C(C)(C)C)cc1)n2C`, the inhibition entry in the data set with Peritoneal macrophage [1] and in the data set on Peritoneal macrophage [2] was “Active” each time. The Activity entry in the data set on Peritoneal macrophage [3] is listed as “Non-Toxic”.

Regarding `Cc1ccc(S(=O)(=O)c2cc3cc(Br)ccc3n2C)cc1`, the inhibition result with Peritoneal macrophage [1] and in the data set on Peritoneal macrophage [2] was “Active” in each case. Moreover, the Activity result in the data set on Peritoneal macrophage [3] is given as “Non-Toxic”.

On to `COc1ccc(S(=O)(=O)c2cc3ccccc3n2C)cc1`, for which the inhibition entry with Peritoneal macrophage [1] and in the data set with Peritoneal macrophage [2] was “Active” each time. For the same molecule, the Activity result with Peritoneal macrophage [3] is reported as “Non-Toxic”. Moreover, the IC50 came to 59.4 µM with Peritoneal macrophage [4] and 1.12 µM in the data set on Peritoneal macrophage [5].

As for `Cc1ccc(S(=O)(=O)c2cc3cc([N+](=O)[O-])ccc3n2C)cc1`, the inhibition entry in the data set on Peritoneal macrophage [1] and with Peritoneal macrophage [2] was “Active” in each case. Besides, the Activity result with Peritoneal macrophage [3] is given as “Non-Toxic”.

For `COc1ccc2c(c1)c(CC(=O)O)c(C)n2C(=O)c1ccc(Cl)cc1` [INDOMETHACIN], the inhibition entry with Peritoneal macrophage [1] and with Peritoneal macrophage [2] was “Active” each time. Also, the Activity result in the data set on Peritoneal macrophage [3] is given as “Non-Toxic”.

`Cc1c(S(=O)(=O)c2ccc(C(F)(F)F)cc2)n(C)c2ccccc12`: the inhibition result in the data set on Peritoneal macrophage [1] and with Peritoneal macrophage [2] was “Active” in each case. Also, in the data set on Peritoneal macrophage [3], the Activity entry is “Non-Toxic”.

On to `Cn1c(S(=O)(=O)c2ccc(Cl)cc2)cc2ccccc21`, for which the inhibition entry with Peritoneal macrophage [1] and in the data set with Peritoneal macrophage [2] was “Active” throughout. Also, the Activity result with Peritoneal macrophage [3] is “Non-Toxic”.

Take `Cn1c(S(C)(=O)=O)cc2ccccc21`: the inhibition result with Peritoneal macrophage [1] and with Peritoneal macrophage [2] was “Active” in each case. Further, in the data set with Peritoneal macrophage [3], the Activity entry is on record as “Non-Toxic”.

As for `Cc1ccc(S(=O)(=O)c2cc3ccc(C)cc3n2C)cc1`, the inhibition result with Peritoneal macrophage [1] and with Peritoneal macrophage [2] was “Active” each time. In the data set with Peritoneal macrophage [3], the Activity entry is “Non-Toxic”.

Regarding `Cn1c(S(=O)(=O)c2cccs2)cc2ccccc21`, the inhibition result in the data set with Peritoneal macrophage [1] and in the data set with Peritoneal macrophage [2] was “Active” in each case. In addition, the Activity entry in the data set on Peritoneal macrophage [3] is “Non-Toxic”.

Consider `CCn1c(-c2ccccc2)c(S(=O)(=O)c2ccc(C)cc2)c2ccccc21`, for which the inhibition result with Peritoneal macrophage [1] and in the data set with Peritoneal macrophage [2] was “Active” in each case. The Activity entry with Peritoneal macrophage [3] is reported as “Non-Toxic”.

Consider `Cc1ccc(S(=O)(=O)c2[nH]c3ccccc3c2I)cc1`, for which the inhibition result with Peritoneal macrophage [1] and with Peritoneal macrophage [2] was “Active” in each case. Further, the Activity result in the data set with Peritoneal macrophage [3] is recorded as “Non-Toxic”.

Turning to `Cc1ccc(S(=O)(=O)c2cc3c(Cl)cccc3n2C)cc1`, the inhibition entry in the data set on Peritoneal macrophage [1] and in the data set with Peritoneal macrophage [2] was “Active” throughout. In addition, the Activity entry in the data set on Peritoneal macrophage [3] is listed as “Non-Toxic”.

As to `Cc1ccc(S(=O)(=O)c2c(C)c3ccccc3n2C)cc1`, the inhibition result in the data set on Peritoneal macrophage [1] and in the data set on Peritoneal macrophage [2] was “Active” each time. Also, the Activity entry with Peritoneal macrophage [3] was “Non-Toxic”.

Regarding `Cc1ccc2cc(S(=O)(=O)c3cccc4ccccc34)[nH]c2c1`, the inhibition result in the data set on Peritoneal macrophage [1] and in the data set on Peritoneal macrophage [2] was “Active” each time. The Activity entry in the data set on Peritoneal macrophage [3] is “Non-Toxic”.

Turning to `CCCCn1c(S(=O)(=O)c2ccc(C)cc2)cc2ccccc21`, the inhibition entry with Peritoneal macrophage [1] and with Peritoneal macrophage [2] was “Active” throughout. Further, the Activity result in the data set with Peritoneal macrophage [3] is given as “Non-Toxic”.

For the molecule `Cn1c(S(=O)(=O)c2ccc(F)cc2)cc2ccccc21`, the inhibition result with Peritoneal macrophage [1] and in the data set on Peritoneal macrophage [2] was “Active” in each case. In the data set with Peritoneal macrophage [3], the Activity entry was “Non-Toxic”.

As to `Cn1c(S(=O)(=O)c2cccc3ccccc23)cc2ccccc21`, the inhibition entry in the data set with Peritoneal macrophage [1] and with Peritoneal macrophage [2] was “Active” throughout. In the data set on Peritoneal macrophage [3], the Activity result is reported as “Non-Toxic”.

With `Cc1ccc(S(=O)(=O)c2cc3ccccc3n2C)cc1`, the inhibition at 10 µM in the data set on Peritoneal macrophage [1] came out at 82%; with Peritoneal macrophage [2], 88%. Besides, in the data set with Peritoneal macrophage [3], the Activity result is “Non-Toxic”. Moreover, the IC50 in the data set with Peritoneal macrophage [4] was 11.9 µM; in the data set on Peritoneal macrophage [5], 2.39 µM. The inhibition entry in the data set with Peritoneal macrophage [4] and in the data set with Peritoneal macrophage [5] was “Dose-dependent effect” throughout.

In the case of `COc1ccc2c(c1)cc(S(=O)(=O)c1ccc(C)cc1)n2C`, the inhibition entry in the data set on Peritoneal macrophage [1] and with Peritoneal macrophage [2] was “Active” in each case. Besides, in the data set with Peritoneal macrophage [3], the Activity result is recorded as “Non-Toxic”.

Consider `Cc1ccc(S(=O)(=O)c2cc3c(Cl)cccc3[nH]2)cc1`, for which the inhibition result in the data set with Peritoneal macrophage [1] and in the data set with Peritoneal macrophage [2] was “Active” in each case. For the same molecule, the Activity entry in the data set with Peritoneal macrophage [3] is recorded as “Non-Toxic”.

Take `Cc1ccc(S(=O)(=O)c2[nH]c3cc(C)ccc3c2I)cc1`: the inhibition result with Peritoneal macrophage [1] and with Peritoneal macrophage [2] was “Active” in each case. In addition, the Activity entry in the data set with Peritoneal macrophage [3] is “Non-Toxic”.

For the molecule `Cc1ccccc1S(=O)(=O)c1cc2ccccc2n1C`, the inhibition result in the data set on Peritoneal macrophage [1] and in the data set on Peritoneal macrophage [2] was “Active” each time. In addition, in the data set with Peritoneal macrophage [3], the Activity entry is reported as “Non-Toxic”.

The values above are taken from ChEMBL document CHEMBL4382208, “Design, synthesis and biological evaluation of novel 2-sulfonylindoles as potential anti-inflammatory therapeutic agents for treatment of acute lung injury” (Eur J Med Chem, 2018).
